Test results from BindingDB's records for doi:10.1021/jm801343r (University of Washington At Seattle, 2009).
pIC50: −log10 of the molar value.

Columns and labels:
Assay in all cases: DHODH Inhibition Assay
[1] = molecular target: T1, Dihydroorotate dehydrogenase (quinone), mitochondrial (Plasmodium falciparum (isolate 3D7), UniProt Q08210)
T1 sequence (Q08210 whole entry): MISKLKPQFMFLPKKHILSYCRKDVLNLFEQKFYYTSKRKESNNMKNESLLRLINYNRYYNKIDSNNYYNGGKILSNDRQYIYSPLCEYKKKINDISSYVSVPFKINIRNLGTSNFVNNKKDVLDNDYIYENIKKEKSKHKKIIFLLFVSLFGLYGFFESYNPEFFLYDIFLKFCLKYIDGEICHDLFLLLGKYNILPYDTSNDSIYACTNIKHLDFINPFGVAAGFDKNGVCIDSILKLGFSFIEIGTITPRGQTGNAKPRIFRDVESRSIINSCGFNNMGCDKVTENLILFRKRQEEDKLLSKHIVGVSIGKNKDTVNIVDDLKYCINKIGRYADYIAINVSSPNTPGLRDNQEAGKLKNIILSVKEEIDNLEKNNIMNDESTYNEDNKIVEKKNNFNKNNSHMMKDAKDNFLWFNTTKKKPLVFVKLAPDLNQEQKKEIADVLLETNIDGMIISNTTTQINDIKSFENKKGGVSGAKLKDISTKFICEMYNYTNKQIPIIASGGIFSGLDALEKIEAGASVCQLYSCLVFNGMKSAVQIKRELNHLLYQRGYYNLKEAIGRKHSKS
Protocol: (§1) The assays were carried out by using a colorimetric DCIP method, which uses the colorimetric reagent 2, 6-dichlorophenolindophenol as the final electron acceptor. DCIP reduction is stoichiometrically equivalent to oxidation of dihydroorotate. Changes in absorbance were quantified on a plate reader and data were analyzed to measure the reduction of DCIP as a decrease in absorbance at 600 nm.

[2] = molecular target: T2, Dihydroorotate dehydrogenase (quinone), mitochondrial [100-517] (Plasmodium berghei (strain Anka), UniProt A0A509AEH5)
T2 construct: 100-517
T2 sequence (A0A509AEH5 whole entry): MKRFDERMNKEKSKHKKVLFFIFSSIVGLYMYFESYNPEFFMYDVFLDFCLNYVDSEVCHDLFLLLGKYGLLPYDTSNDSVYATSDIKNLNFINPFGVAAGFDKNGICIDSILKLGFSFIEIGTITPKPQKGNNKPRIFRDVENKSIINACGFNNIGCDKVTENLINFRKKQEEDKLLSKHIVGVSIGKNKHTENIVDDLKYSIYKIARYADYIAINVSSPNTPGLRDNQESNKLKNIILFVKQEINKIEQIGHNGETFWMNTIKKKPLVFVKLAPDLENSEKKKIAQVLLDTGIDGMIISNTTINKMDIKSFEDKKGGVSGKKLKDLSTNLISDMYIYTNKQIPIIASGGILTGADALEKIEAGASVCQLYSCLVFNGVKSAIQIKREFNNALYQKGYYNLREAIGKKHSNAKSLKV
Protocol: as §1

[3] = molecular target: T3, Dihydroorotate dehydrogenase (quinone), mitochondrial [30-395] (Homo sapiens, UniProt Q02127)
T3 construct: 30-395
Protocol: as §1

T3 sequence (Q02127 30-395): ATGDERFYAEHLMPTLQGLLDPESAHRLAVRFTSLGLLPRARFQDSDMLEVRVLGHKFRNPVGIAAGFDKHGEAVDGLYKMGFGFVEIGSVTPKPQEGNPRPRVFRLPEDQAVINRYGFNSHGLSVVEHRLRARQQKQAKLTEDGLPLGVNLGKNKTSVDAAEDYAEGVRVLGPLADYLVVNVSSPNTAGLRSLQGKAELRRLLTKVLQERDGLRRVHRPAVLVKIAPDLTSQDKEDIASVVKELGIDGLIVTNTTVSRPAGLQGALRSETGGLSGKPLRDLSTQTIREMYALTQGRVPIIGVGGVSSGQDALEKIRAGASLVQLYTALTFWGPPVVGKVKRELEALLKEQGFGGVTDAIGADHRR

| Compound | pIC50 ([1]; pH 8, 20 °C) | pIC50 [2] | pIC50 [3] | pIC50 [1] |
| --- | --- | --- | --- | --- |
| Cc1cc(Nc2c(F)c(F)cc(F)c2F)n2ncnc2n1 [5-methyl-N-(2,3,5,6-tetrafluorophenyl)-[1,2,4]triazolo[1,5-a]pyrimidin-7-amine] | < 4.00 | < 4.00 | – | – |
| Cc1cc(Nc2ccccc2C#N)n2ncnc2n1 [2-({5-methyl-[1,2,4]triazolo[1,5-a]pyrimidin-7-yl}amino)benzonitrile] | < 4.00 | < 4.00 | – | – |
| Cc1cccc(Nc2cc(C)nc3ncnn23)c1 [5-methyl-N-(3-methylphenyl)-[1,2,4]triazolo[1,5-a]pyrimidin-7-amine] | – | < 4.00 | – | – |
| Cc1cc(Nc2ccc3ccccc3c2)n2ncnc2n1 [JMC521864 Compund DSM1] | – | – | < 3.70 | – |
| Cc1cc(Nc2ccc(F)c(F)c2F)n2ncnc2n1 [5-methyl-N-(2,3,4-trifluorophenyl)-[1,2,4]triazolo[1,5-a]pyrimidin-7-amine] | – | < 4.00 | – | – |
| Cc1cc(Nc2c(F)c(F)c(F)c(F)c2F)n2ncnc2n1 [5-methyl-N-(2,3,4,5,6-pentafluorophenyl)-[1,2,4]triazolo[1,5-a]pyrimidin-7-amine] | – | < 4.00 | – | < 4.00 |
| Cc1cc(Nc2ccccc2)n2ncnc2n1 [JMC521864 Compund DSM12] | < 3.70 | < 5.00 | < 3.70 | – |
| COc1ccc(Nc2cc(C)nc3ncnn23)cc1 [N-(4-methoxyphenyl)-5-methyl-[1,2,4]triazolo[1,5-a]pyrimidin-7-amine] | – | < 4.30 | – | – |
| Cc1cc(Nc2cc(C(F)(F)F)cc(C(F)(F)F)c2)n2ncnc2n1 [N-[3,5-bis(trifluoromethyl)phenyl]-5-methyl-[1,2,4]triazolo[1,5-a]pyrimidin-7-amine] | – | < 4.00 | – | < 4.00 |
| Cc1cc(Nc2cc(F)ccc2F)n2ncnc2n1 [N-(2,5-difluorophenyl)-5-methyl-[1,2,4]triazolo[1,5-a]pyrimidin-7-amine] | < 4.30 | < 4.00 | – | – |
| Cc1cc(Nc2cccc(F)c2F)n2ncnc2n1 [N-(2,3-difluorophenyl)-5-methyl-[1,2,4]triazolo[1,5-a]pyrimidin-7-amine] | – | < 4.00 | – | – |
| Cc1cc(Nc2c(F)cc(F)cc2F)n2ncnc2n1 [5-methyl-N-(2,4,6-trifluorophenyl)-[1,2,4]triazolo[1,5-a]pyrimidin-7-amine] | < 4.00 | < 4.00 | – | – |
| Cc1cc(Nc2ccccc2C)n2ncnc2n1 [5-methyl-N-(2-methylphenyl)-[1,2,4]triazolo[1,5-a]pyrimidin-7-amine] | < 4.00 | < 4.00 | – | – |
| Cc1cc(Nc2cccc(F)c2)n2ncnc2n1 [N-(3-fluorophenyl)-5-methyl-[1,2,4]triazolo[1,5-a]pyrimidin-7-amine] | – | < 4.00 | – | – |
| Cc1cc(Nc2ccccc2C(F)(F)F)n2ncnc2n1 [5-methyl-N-[2-(trifluoromethyl)phenyl]-[1,2,4]triazolo[1,5-a]pyrimidin-7-amine] | < 4.00 | < 4.00 | – | – |
| Cc1cc(Nc2ccc(F)cc2)n2ncnc2n1 [N-(4-fluorophenyl)-5-methyl-[1,2,4]triazolo[1,5-a]pyrimidin-7-amine] | – | < 4.00 | – | – |
| Cc1cc(Nc2cc(F)c(F)cc2F)n2ncnc2n1 [5-methyl-N-(2,4,5-trifluorophenyl)-[1,2,4]triazolo[1,5-a]pyrimidin-7-amine] | – | < 4.00 | – | – |
| Cc1cc(Nc2ccc(Cc3ccccc3)cc2)n2ncnc2n1 [N-(4-benzylphenyl)-5-methyl-[1,2,4]triazolo[1,5-a]pyrimidin-7-amine] | – | < 4.00 | – | – |
| Cc1cc(Nc2ccccc2F)n2ncnc2n1 [N-(2-fluorophenyl)-5-methyl-[1,2,4]triazolo[1,5-a]pyrimidin-7-amine] | < 4.00 | < 4.00 | – | – |
| Cc1cc(Nc2ccccc2Cl)n2ncnc2n1 [N-(2-chlorophenyl)-5-methyl-[1,2,4]triazolo[1,5-a]pyrimidin-7-amine] | < 4.00 | < 4.00 | – | – |
| Cc1cc(Nc2c(F)cccc2F)n2ncnc2n1 [N-(2,6-difluorophenyl)-5-methyl-[1,2,4]triazolo[1,5-a]pyrimidin-7-amine] | < 4.00 | < 4.00 | – | – |
| Cc1ccc(Nc2cc(C)nc3ncnn23)c(F)c1 [N-(2-fluoro-4-methylphenyl)-5-methyl-[1,2,4]triazolo[1,5-a]pyrimidin-7-amine] | – | < 4.00 | – | – |
| Cc1cc(Nc2ccc3cc4ccccc4cc3c2)n2ncnc2n1 [N-(anthracen-2-yl)-5-methyl-[1,2,4]triazolo[1,5-a]pyrimidin-7-amine] | – | 5.43 | < 3.70 | – |
